Key:
Assay in all cases: relative viability (nuclei count vs DMSO), 5 days (fraction); higher = more cells survive
ABC-1 = test system: ABC-1
How it was run: (§1)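 Relative viability is defined as nuclei in treated wells over nuclei in vehicle wells. Duplicate plates were run and medians reported. Lung cancer cell lines in 1536-well plates were dosed by pin tool one day after seeding, with one drug or with a fixed anchor-drug dose plus five library-drug doses (not always all listed) in √10 steps, and nuclei were counted after 5 days.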

COR-L23 = test system: COR-L23
How it was run: as §1

ChaGo-K-1 = test system: ChaGo-K-1
How it was run: as §1

NCI-H1437 = test system: NCI-H1437
How it was run: as §1

NCI-H1623 = test system: NCI-H1623
How it was run: as §1

NCI-H1651 = test system: NCI-H1651
How it was run: as §1

SK-MES-1 = test system: SK-MES-1
How it was run: as §1

SW 1573 = test system: SW 1573
How it was run: as §1

A549 = test system: A549
How it was run: as §1

Calu-6 = test system: Calu-6
How it was run: as §1

EBC-1 = test system: EBC-1
How it was run: as §1

IA-LM = test system: IA-LM
How it was run: as §1

NCI-H1299 = test system: NCI-H1299
How it was run: as §1

NCI-H1648 = test system: NCI-H1648
How it was run: as §1

NCI-H1703 = test system: NCI-H1703
How it was run: as §1

`COc1nc(C)cnc1NS(=O)(=O)c1cccnc1-c1ccc(-c2nnco2)cc1` [Zibotentan] + Cc1nc(Nc2ncc(C(=O)Nc3c(C)cccc3Cl)s2)cc(N2CCN(CCO)CC2)n1 [Dasatinib] (partner 0.075 µM) gave a relative viability (ABC-1; first compound 0.08 µM) of 0.568, a relative viability (ABC-1; first compound 0.253 µM) of 0.572 and a relative viability (ABC-1; first compound 0.8 µM) of 0.548. It also gave a relative viability (ABC-1; first compound 2.53 µM) of 0.556, a relative viability (COR-L23; first compound 0.08 µM) of 0.502 and a relative viability (COR-L23; first compound 0.253 µM) of 0.485. For the same compound, the relative viability (COR-L23; first compound 0.8 µM) was 0.488, the relative viability (COR-L23; first compound 2.53 µM) was 0.5 and the relative viability (ChaGo-K-1; first compound 0.08 µM) was 0.604. For the same compound, the relative viability (ChaGo-K-1; first compound 0.253 µM) was 0.646, the relative viability (ChaGo-K-1; first compound 0.8 µM) was 0.498 and the relative viability (ChaGo-K-1; first compound 2.53 µM) was 0.626. For the same compound, the relative viability (NCI-H1437; first compound 0.08 µM) was 0.408, the relative viability (NCI-H1437; first compound 0.253 µM) was 0.292 and the relative viability (NCI-H1437; first compound 0.8 µM) was 0.283. The relative viability (NCI-H1437; first compound 2.53 µM) was 0.428, the relative viability (NCI-H1623; first compound 0.08 µM) was 0.533 and the relative viability (NCI-H1623; first compound 0.8 µM) was 0.567. The relative viability (NCI-H1623; first compound 2.53 µM) was 0.507, the relative viability (NCI-H1651; first compound 0.08 µM) was 0.462 and the relative viability (NCI-H1651; first compound 0.253 µM) was 0.318. It also gave a relative viability (NCI-H1651; first compound 0.8 µM) of 0.445, a relative viability (NCI-H1651; first compound 2.53 µM) of 0.451 and a relative viability (SK-MES-1; first compound 0.08 µM) of 0.333. The relative viability (SK-MES-1; first compound 0.253 µM) was 0.261, the relative viability (SK-MES-1; first compound 0.8 µM) was 0.473 and the relative viability (SK-MES-1; first compound 2.53 µM) was 0.363. For the same compound, the relative viability (SW 1573; first compound 0.08 µM) was 0.565, the relative viability (SW 1573; first compound 0.8 µM) was 0.537 and the relative viability (SW 1573; first compound 2.53 µM) was 0.556.
`O=c1cc(-c2cccc3c2Sc2ccccc2S3)oc(N2CCOCC2)c1` + O=C(c1cc(Cc2n[nH]c(=O)c3ccccc23)ccc1F)N1CCN(C(=O)C2CC2)CC1 [Olaparib] (partner 8 µM) gave a relative viability (A549; first compound 0.08 µM) of 0.224, a relative viability (A549; first compound 0.253 µM) of 0.348 and a relative viability (A549; first compound 0.8 µM) of 0.277. For the same compound, the relative viability (A549; first compound 2.53 µM) was 0.354, the relative viability (A549; first compound 8 µM) was 0.363 and the relative viability (ABC-1; first compound 0.08 µM) was 0.821. For the same compound, the relative viability (ABC-1; first compound 0.253 µM) was 0.718, the relative viability (ABC-1; first compound 0.8 µM) was 0.735 and the relative viability (ABC-1; first compound 2.53 µM) was 0.777. The relative viability (ABC-1; first compound 8 µM) was 0.75, the relative viability (COR-L23; first compound 0.08 µM) was 0.35 and the relative viability (COR-L23; first compound 0.253 µM) was 0.395. It also gave a relative viability (COR-L23; first compound 0.8 µM) of 0.351, a relative viability (COR-L23; first compound 2.53 µM) of 0.362 and a relative viability (COR-L23; first compound 8 µM) of 0.351. The relative viability (Calu-6; first compound 0.08 µM) was 0.63, the relative viability (Calu-6; first compound 0.253 µM) was 0.636 and the relative viability (Calu-6; first compound 0.8 µM) was 0.601. It also gave a relative viability (Calu-6; first compound 2.53 µM) of 0.599, a relative viability (Calu-6; first compound 8 µM) of 0.549 and a relative viability (ChaGo-K-1; first compound 0.08 µM) of 0.503. It also gave a relative viability (ChaGo-K-1; first compound 0.253 µM) of 0.494, a relative viability (ChaGo-K-1; first compound 0.8 µM) of 0.415 and a relative viability (ChaGo-K-1; first compound 2.53 µM) of 0.466. For the same compound, the relative viability (ChaGo-K-1; first compound 8 µM) was 0.411, the relative viability (EBC-1; first compound 0.08 µM) was 0.618 and the relative viability (EBC-1; first compound 0.253 µM) was 0.831. The relative viability (EBC-1; first compound 0.8 µM) was 0.732, the relative viability (EBC-1; first compound 2.53 µM) was 0.619 and the relative viability (EBC-1; first compound 8 µM) was 0.324. The relative viability (IA-LM; first compound 0.08 µM) was 0.848, the relative viability (IA-LM; first compound 0.253 µM) was 1.07 and the relative viability (IA-LM; first compound 0.8 µM) was 0.934. For the same compound, the relative viability (IA-LM; first compound 2.53 µM) was 0.796, the relative viability (IA-LM; first compound 8 µM) was 0.866 and the relative viability (NCI-H1299; first compound 0.08 µM) was 0.951. The relative viability (NCI-H1299; first compound 0.253 µM) was 1.05, the relative viability (NCI-H1299; first compound 0.8 µM) was 1.04 and the relative viability (NCI-H1299; first compound 2.53 µM) was 1.02. It also gave a relative viability (NCI-H1299; first compound 8 µM) of 0.909, a relative viability (NCI-H1437; first compound 0.08 µM) of 0.618 and a relative viability (NCI-H1437; first compound 0.253 µM) of 0.785. It also gave a relative viability (NCI-H1437; first compound 0.8 µM) of 0.684, a relative viability (NCI-H1437; first compound 2.53 µM) of 0.615 and a relative viability (NCI-H1437; first compound 8 µM) of 0.541. It also gave a relative viability (NCI-H1648; first compound 0.253 µM) of 1.01, a relative viability (NCI-H1648; first compound 0.8 µM) of 0.781 and a relative viability (NCI-H1648; first compound 8 µM) of 1.2. The relative viability (NCI-H1651; first compound 0.08 µM) was 0.166, the relative viability (NCI-H1651; first compound 0.253 µM) was 0.175 and the relative viability (NCI-H1651; first compound 0.8 µM) was 0.184. For the same compound, the relative viability (NCI-H1651; first compound 2.53 µM) was 0.168, the relative viability (NCI-H1651; first compound 8 µM) was 0.176 and the relative viability (NCI-H1703; first compound 0.08 µM) was 0.314. For the same compound, the relative viability (NCI-H1703; first compound 0.253 µM) was 0.445, the relative viability (NCI-H1703; first compound 0.8 µM) was 0.406 and the relative viability (NCI-H1703; first compound 2.53 µM) was 0.246. It also gave a relative viability (NCI-H1703; first compound 8 µM) of 0.227, a relative viability (SK-MES-1; first compound 0.08 µM) of 0.756 and a relative viability (SK-MES-1; first compound 0.253 µM) of 0.892. For the same compound, the relative viability (SK-MES-1; first compound 0.8 µM) was 0.708, the relative viability (SK-MES-1; first compound 2.53 µM) was 0.705 and the relative viability (SK-MES-1; first compound 8 µM) was 0.467. It also gave a relative viability (SW 1573; first compound 0.08 µM) of 0.513, a relative viability (SW 1573; first compound 0.253 µM) of 0.574 and a relative viability (SW 1573; first compound 0.8 µM) of 0.613. It also gave a relative viability (SW 1573; first compound 2.53 µM) of 0.487 and a relative viability (SW 1573; first compound 8 µM) of 0.44.
Compound `O=c1cc(N2CCOCC2)oc2c(-c3cccc4c3sc3ccccc34)cccc12` + Cc1nc(Nc2ncc(C(=O)Nc3c(C)cccc3Cl)s2)cc(N2CCN(CCO)CC2)n1 [Dasatinib] (partner 0.075 µM) has a relative viability (ABC-1; first compound 0.01 µM) of 0.569, a relative viability (ABC-1; first compound 0.03162 µM) of 0.561 and a relative viability (ABC-1; first compound 0.1 µM) of 0.582. It also gave a relative viability (ABC-1; first compound 0.3162 µM) of 0.488, a relative viability (ABC-1; first compound 1 µM) of 0.567 and a relative viability (COR-L23; first compound 0.01 µM) of 0.534. For the same compound, the relative viability (COR-L23; first compound 0.03162 µM) was 0.496, the relative viability (COR-L23; first compound 0.1 µM) was 0.566 and the relative viability (COR-L23; first compound 0.3162 µM) was 0.446. For the same compound, the relative viability (COR-L23; first compound 1 µM) was 0.512, the relative viability (ChaGo-K-1; first compound 0.01 µM) was 0.402 and the relative viability (ChaGo-K-1; first compound 0.03162 µM) was 0.641. The relative viability (ChaGo-K-1; first compound 0.1 µM) was 0.517, the relative viability (ChaGo-K-1; first compound 0.3162 µM) was 0.609 and the relative viability (ChaGo-K-1; first compound 1 µM) was 0.73. The relative viability (NCI-H1437; first compound 0.01 µM) was 0.337, the relative viability (NCI-H1437; first compound 0.03162 µM) was 0.329 and the relative viability (NCI-H1437; first compound 0.1 µM) was 0.492. For the same compound, the relative viability (NCI-H1437; first compound 0.3162 µM) was 0.509, the relative viability (NCI-H1437; first compound 1 µM) was 0.344 and the relative viability (NCI-H1623; first compound 0.01 µM) was 0.456. The relative viability (NCI-H1623; first compound 0.03162 µM) was 0.517, the relative viability (NCI-H1623; first compound 0.1 µM) was 0.402 and the relative viability (NCI-H1623; first compound 0.3162 µM) was 0.5. The relative viability (NCI-H1623; first compound 1 µM) was 0.438, the relative viability (NCI-H1651; first compound 0.01 µM) was 0.421 and the relative viability (NCI-H1651; first compound 0.03162 µM) was 0.414. The relative viability (NCI-H1651; first compound 0.1 µM) was 0.395, the relative viability (NCI-H1651; first compound 0.3162 µM) was 0.338 and the relative viability (NCI-H1651; first compound 1 µM) was 0.519. It also gave a relative viability (SK-MES-1; first compound 0.01 µM) of 0.413, a relative viability (SK-MES-1; first compound 0.03162 µM) of 0.363 and a relative viability (SK-MES-1; first compound 0.1 µM) of 0.349. It also gave a relative viability (SK-MES-1; first compound 0.3162 µM) of 0.447, a relative viability (SK-MES-1; first compound 1 µM) of 0.337 and a relative viability (SW 1573; first compound 0.01 µM) of 0.463. The relative viability (SW 1573; first compound 0.03162 µM) was 0.482, the relative viability (SW 1573; first compound 0.1 µM) was 0.535 and the relative viability (SW 1573; first compound 0.3162 µM) was 0.546. The relative viability (SW 1573; first compound 1 µM) was 0.475.
